Patent US5364966A, “Amide derivatives, their production processes and their compositions for the control of insect pests” (Sumitomo Chemical Company, Limited, priority 1991, dated 1994)

Tests used:
[1] = tested on: brown rice planthopper (Nilaparvata lugens); assay: Metamorphosis inhibitory activity against brown rice planthopper nymphs; type: in vivo; details: sprayed rice plants, 3rd instar nymphs, after 10 days
Experimental: Metamorphosis inhibitory activity against brown rice planthopper nymphs
An emulsifiable concentrate prepared according to Formulation Example 1 was diluted with water to make a predetermined concentration. The dilution was sprayed onto rice plants cultivated in polyethylene cups at a rate of 20 ml/2 pots on a turning table. After air-drying, the plants were infested with about ten 3rd instar nymphs of brown rice planthopper (Nilaparvata lugens). After 10 days, the number of normal adults was counted to obtain an emergence inhibitory rate.

[2] = tested on: cotton aphids (Aphis gossypil); assay: Reproduction inhibitory activity against cotton aphids; type: in vivo; details: 10 ppm; sprayed potted cotton plants infested with 1st instar nymphs, one week after spraying
Experimental: Reproduction inhibitory activity against cotton aphids
An emulsifiable concentrate prepared according to Formulation Example 1 was diluted with water to make a predetermined concentration. The dilution was sprayed onto potted cotton plants (in a stage of 8-9 days after sowing) infested with 1st instar nymphs of cotton aphids (Aphis gossypil) at a rate of 30 ml/2 pots on a turning table. Before spraying and one week after spraying, the humber of nymphs and aduts was counted, and a reproduction inhibitory index was expressed by the following equation: [formula] wherein the judgement of activity is based on the following standard: A: less than 1 (excellent effect)

[3] = Nilaparvata lugens, 240 h, 0.05 ppm, read-out: Inhibitory rate (emergence inhibitory rate)
[4] = Nilaparvata lugens, 240 h, 5 ppm, read-out: Inhibitory rate (emergence inhibitory rate)

Row | SMILES | inhibition at 0.05 ppm [1, 3] [%] | inhibition at 5 ppm [1, 4] [%] | other results
1 | O=C(NCCOc1ccc(Oc2cccc(F)c2)cc1Cl)C1CC1 [compound 5, N-{2-[2-Chloro-4-(3-fluorophenoxy)phenoxy]ethyl}-cyclopropane carboxyamide] | 100 | 100 | –
2 | O=C(NCCOc1ccc(Oc2cc(F)cc(F)c2)cc1Cl)C1CC1 [Compound No. 1, N-{2-[2-Chloro-4-(3,5-difluorophenoxy)phenoxy]ethyl}-cyclopropane carboxyamide] | 100 | 100 | reproduction inhibitory index [2]: A (less than 1 (excellent effect))
3 | CCC(C)Oc1ccc(OCCNC(=O)C2CC2)c(Cl)c1 (stereo not drawn) [Compound No. 14, N-{2-[2-Chloro-4-(1-methylpropoxy)phenoxy]ethyl}-cyclopropane carboxyamide] | 100 | 100 | –
4 | O=C(NCCOc1ccc(Oc2ccccc2)cc1)C1CC1 [A, reference compound] | – | 0 | –
5 | O=C(NCCOc1ccc(Oc2cccc(Cl)c2)cc1Cl)C1CC1 [compound 6, N-{2-[2-Chloro-4-(3-chlorophenoxy)phenoxy]ethyl}-cyclopropane carboxyamide] | 100 | 100 | –
6 | S=C(NCCOc1ccc(Cc2ccccc2)cc1Cl)C1CC1 [Compound No. 3, N-[2-(4-Benzyl-2-chlorophenoxy)ethyl]-cyclopropane thiocarboxyamide] | 100 | 100 | –
7 | CC(C)COCc1ccc(OCCNC(=O)C2CC2)c(Cl)c1 [Compound No. 10, N-{2-[2-Chloro-4-(2-methylpropoxymethyl)phenoxy]ethyl}-cyclopropane carboxyamide] | 100 | 100 | –
8 | CCC(CC)Cc1ccc(OCCNC(=O)C2CC2)c(Cl)c1 [compound 12, N-{2-[2-Chloro-4-(2-ethylbutyl)phenoxy]ethyl}-cyclopropane carboxyamide] | 100 | 100 | –
9 | CCC(C)Oc1ccc(OCCNC(=S)C2CC2)c(Cl)c1 (stereo not drawn) [compound 11, N-{2-[2-Chloro-4-(1-methylpropoxy)phenoxy]ethyl}-cyclopropane thiocarboxyamide] | – | – | Inhibitory rate (emergence inhibitory rate) ([1]; 0.05 ppm): 100%; Inhibitory rate (emergence inhibitory rate) ([1]; 5 ppm): 100%
10 | O=C(NCCOc1ccc(Oc2ccccc2)cc1Cl)C1CC1 [compound 15, N-[2-(2-Chloro-4-phenoxyphenoxy)ethyl]-cyclopropane carboxyamide] | – | 100 | –
11 | S=C(NCCOc1ccc(Oc2cccc(Cl)c2)cc1Cl)C1CC1 [compound 16, N-{2-[2-Chloro-4-(3-chlorophenoxy)phenoxy]ethyl}-cyclopropane thiocarboxyamide] | – | – | inhibition at 0.5 ppm ([1]; Nilaparvata lugens, 240 h, 0.5 ppm, read-out: Inhibitory rate (emergence inhibitory rate)): 100%
12 | O=C(NCCOc1ccc(Cc2ccccc2)cc1Cl)C1CC1 [compound 13, N-[2-(4-Benzyl-2-chlorophenoxy)ethyl]-cyclopropane carboxyamide] | 100 | 100 | –
13 | O=C(NCCOc1cc(Oc2ccccc2)ccc1Cl)C1CC1 [compound 8, N-[2-(2-Chloro-5-phenoxyphenoxy)ethyl]-cyclopropane carboxyamide] | 100 | 100 | –
14 | Fc1cc(F)cc(Oc2ccc(OCCNC(=S)C3CC3)c(Cl)c2)c1 [compound 4, N-{2-[2-Chloro-4-(3,5-difluorophenoxy)phenoxy]ethyl}-cyclopropane thiocarboxyamide] | 100 | 100 | –
15 | O=C(NCCOc1ccc(Oc2ccc(F)cc2F)cc1Cl)C1CC1 [compound 7, N-{2-[2-Chloro-4-(2,4-difluorophenoxy)phenoxy]ethyl}-cyclopropane carboxyamide] | – | 100 | –
